Measurements from patent US8481679B2, “Immobilizing an entity in a desired orientation on a support material” (Arizona Board of Regents Acting on behalf of Arizona State …, priority 2007, dated 2013).

How the values were obtained:
carbonic anhydrase [1] = assay: Corning Epic binding of carbonic anhydrase to wells pre-coated with attachment peptides; conditions: carbonic anhydrase at 1 μM; 30 and 180 minute incubation
Excerpt: The selected candidate peptides were applied to the wells of a Corning Epic System 384-well microplate by linking the C-terminal cysteines of the peptides to surface amines of the Epic microplate wells via the maleimide and amine moieties, respectively, of a BMPH linker (Pierce). The immobilization of the peptides to the Epic microplate wells without carbonic anhydrase was first evaluated to identify any peptides binding poorly to the well surface, and to provide a basis for computing the maximum wavelength shift theoretically obtainable with optimal binding of the carbonic anhydrase to the peptides at a concentration sufficient to saturate. […] This could reflect inadequate binding to the surface due to poor solubility of the poorly binding peptides.
Carbonic anhydrase was applied in Epic microplate wells in which the selected peptides had been pre-applied to the well surface, in groups of four replicate wells and in carbonic anhydrase concentrations ranging from 31 nM to 1 μM. Observed wavelength shifts after 30 minute incubation of the indicated concentrations of carbonic anhydrase with peptides CA4, CA8, CA9, CA10, CA11, and CA12 are shown in FIG. 7(a).

carbonic anhydrase [2] = assay: Corning Epic binding of dansylamide to carbonic anhydrase immobilized by attachment peptides; conditions: 1 μM dansylamide; six carbonic anhydrase concentrations, four replicates each; nearly all replicates
Description: Dansylamide, a known inhibitor of carbonic anhydrase, was applied to a range of concentrations (31 nM to 1 μM) of carbonic anhydrase immobilized in Epic wells by peptides CA4, CA8, CA9, CA10, CA11, and CA12. […] Wavelength shifts on the order of approximately 10 to 20 pm were observed upon application of the dansylamide to carbonic anhydrase immobilized at 1 μM concentration on peptides CA4, CA8, and CA11, confirming that the carbonic anhydrase was immobilized in an orientation that preserved the availability of the binding site (active site) and ability of the enzyme to consistently bind the inhibitor dansylamide, and confirming that the attachment peptides were able to immobilize carbonic anhydrase in the wells of an Epic plate in a manner such that binding of dansylamide to the carbonic anhydrase was readily detectable by the Epic technology.
For nearly all replicates, a shift on the order of 20 pm was observed upon application of the dansylamide.

beta-galactosidase = beta-galactosidase (Escherichia coli, UniProt P00722); conditions: 50 nM beta-galactosidase, 5 μM FDG, 0.5 hour preincubation; selected peptide at 2, 10, 50, 100 μM
Chain of beta-galactosidase (P00722 2-1024): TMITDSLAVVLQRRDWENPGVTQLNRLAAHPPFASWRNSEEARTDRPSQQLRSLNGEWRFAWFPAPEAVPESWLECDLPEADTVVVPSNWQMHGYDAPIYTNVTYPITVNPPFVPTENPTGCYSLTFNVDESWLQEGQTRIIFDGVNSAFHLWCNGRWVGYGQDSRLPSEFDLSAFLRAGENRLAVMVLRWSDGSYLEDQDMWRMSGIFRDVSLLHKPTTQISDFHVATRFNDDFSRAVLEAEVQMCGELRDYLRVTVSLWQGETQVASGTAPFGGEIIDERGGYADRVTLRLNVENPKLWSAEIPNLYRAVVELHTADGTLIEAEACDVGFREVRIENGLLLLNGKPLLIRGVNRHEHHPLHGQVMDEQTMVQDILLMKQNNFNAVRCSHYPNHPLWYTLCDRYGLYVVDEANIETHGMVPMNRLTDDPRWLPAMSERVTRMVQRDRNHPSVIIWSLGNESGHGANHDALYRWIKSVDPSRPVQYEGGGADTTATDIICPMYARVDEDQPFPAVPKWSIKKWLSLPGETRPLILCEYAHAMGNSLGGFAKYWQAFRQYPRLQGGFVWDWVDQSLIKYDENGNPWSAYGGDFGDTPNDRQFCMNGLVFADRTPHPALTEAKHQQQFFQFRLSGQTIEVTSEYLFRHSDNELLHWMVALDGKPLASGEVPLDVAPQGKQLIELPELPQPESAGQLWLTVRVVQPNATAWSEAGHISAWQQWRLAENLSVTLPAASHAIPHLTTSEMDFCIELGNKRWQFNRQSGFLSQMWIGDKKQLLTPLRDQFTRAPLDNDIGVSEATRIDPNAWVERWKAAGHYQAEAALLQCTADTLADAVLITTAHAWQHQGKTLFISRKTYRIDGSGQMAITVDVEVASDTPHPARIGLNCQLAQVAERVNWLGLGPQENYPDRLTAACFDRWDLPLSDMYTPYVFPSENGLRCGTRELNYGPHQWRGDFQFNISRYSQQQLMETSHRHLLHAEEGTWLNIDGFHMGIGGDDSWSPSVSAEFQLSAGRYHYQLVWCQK
Description: The enzyme activity of the entity beta-galactosidase when bound to the selected peptide having the sequence […] (SEQ ID NO. 2), was evaluated in solution phase by preincubating varying concentrations of the peptide with beta-galactosidase for 0.5 hour, then adding substrate FDG in solution and measuring 520 nm fluorescence upon 488 nm excitation at a series of time points.

[3] = tested on: T1, selected peptide having the sequence FRNFPVPVIFRYLNPWPGSC (SEQ ID NO. 2)
T1 sequence: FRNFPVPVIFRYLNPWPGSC

[4] = tested on: T2, comparison attachment peptide (sequence ESVPTDLPMDTMEGKNWGSC (SEQ ID NO. 14))
T2 sequence: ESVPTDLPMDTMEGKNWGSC

“CA4: 20-residue candidate attachment peptide for carbonic anhydrase, C-terminal glycine-serine-cysteine; sequence only in FIG. 6A (HWHHRWWHHWKHPHHWRGSC; CA4 (Carbonic Anhydrase Peptide 4))” was tested, and the “wavelength shift on binding of carbonic anhydrase to peptide” value (from here on “wavelength shift on binding”) (carbonic anhydrase [1]) was “wavelength shifts which persisted even after 180 minutes incubation”.
With “CA8: 20-residue candidate attachment peptide for carbonic anhydrase, C-terminal glycine-serine-cysteine; sequence only in FIG. 6A (RHWKWHWWRRHHPHHWFGSC; CA8 (Carbonic Anhydrase Peptide 8))” the “wavelength shift on binding” value (carbonic anhydrase [1]) was “wavelength shifts which persisted even after 180 minutes incubation”.
“CA9: 20-residue candidate attachment peptide for carbonic anhydrase, C-terminal glycine-serine-cysteine; sequence only in FIG. 6A (RVFKRYKRWLHVSRYYFGSC; CA9 (Carbonic Anhydrase Peptide 9))” was tested, and the “wavelength shift on binding” value (carbonic anhydrase [1]) was “wavelength shifts which persisted even after 180 minutes incubation”.
With “CA11: 20-residue candidate attachment peptide for carbonic anhydrase, C-terminal glycine-serine-cysteine; sequence only in FIG. 6A (IEDTYLRFRHYGWYNNNGSC; CA11 (Carbonic Anhydrase Peptide 11))” the “wavelength shift upon application of dansylamide (time course)” value (carbonic anhydrase [2]) was ~20 pm and the “wavelength shift on binding” value (carbonic anhydrase [1]) was “wavelength shifts which persisted even after 180 minutes incubation”.
For “CA12: 20-residue candidate attachment peptide for carbonic anhydrase, C-terminal glycine-serine-cysteine; sequence only in FIG. 6A (SIGIYGHAIARPGGWYFGSC; CA12 (Carbonic Anhydrase Peptide 12))”, the “wavelength shift on binding” value (carbonic anhydrase [1]) was “wavelength shifts which persisted even after 180 minutes incubation”.
In the case of ESVPTDLPMDTMEGKNWGSC [SEQ ID NO. 14], the “520 nm fluorescence intensity (beta-galactosidase activity) relative to beta-galactosidase alone” value (beta-galactosidase) is reported as “slightly higher than for beta-galactosidase alone”.
With FRNFPVPVIFRYLNPWPGSC [SEQ ID NO. 2] the “520 nm fluorescence intensity (beta-galactosidase activity) relative to beta-galactosidase alone” value (beta-galactosidase) was “significantly lower than that for beta-galactosidase alone”.
beta-galactosidase was tested, and the “520 nm fluorescence intensity (FDG hydrolysis by beta-galactosidase, solution phase; peptide at 2, 10, 50 and 100 µM)” value [3] was “at all concentrations was significantly lower than that for beta-galactosidase alone” and the “520 nm fluorescence intensity (FDG hydrolysis by beta-galactosidase, solution phase)” value [4] was “slightly higher than for beta-galactosidase alone”.
